{"source": "paper PMC10527014", "about": "(Antiviral research, 2023)", "test_system": "RD", "test": "Cytotoxicity", "format": "cell-based, human", "conditions": "read-out: 50% Cytotoxic concentration CC50, line of ma-EV-D68"}
{"smiles": "Cc1cc(-c2noc(C(F)(F)F)n2)ccc1OCCCc1cc(C(=O)N(C)C)no1", "note": "[compound 11526092, 3-(3-methyl-4-(3-(3-N,N-dimethylcarbamoyl-isoxazol-5-yl)propoxy)phenyl)-5-trifluoromethyl-1,2,4-oxadiazole]", "values": [{"measurement": "CC50", "result": 9.4, "unit": "µM"}]}
